In ChEMBL document CHEMBL3098063, “Dammarane triterpenes from the leaves of Panax ginseng enhance cellular immunity” (Bioorg Med Chem, 2014):
Calls of active or inactive are those of the source.

Experiments:
Type in all cases: functional, cell-based
[1] = system: Peritoneal macrophage cell; experiment: Inhibition of NO production in LPS-activated mouse peritoneal macrophages at 100 ng/mL after 1 day by ELISA
Splenocyte [2] = experiment: Inhibition of IL-6 secretion in ConA-activated Balb/C mouse splenocytes at 100 ng/mL after 1 day by ELISA
Splenocyte [3] = experiment: Inhibition of IL-4 secretion in ConA-activated Balb/C mouse splenocytes at 100 ng/mL after 1 day by ELISA
Splenocyte [4] = experiment: Stimulation of IL-2 secretion in ConA-activated Balb/C mouse splenocytes at 100 ng/mL after 1 day by ELISA
[5] = system: Peritoneal macrophage cell; experiment: Increase in IL-12 production in LPS-activated mouse peritoneal macrophages at 100 ng/mL after 1 day by ELISA

CC(C)=C[C@H]1C[C@](C)(O[C@@H]2O[C@H](CO)[C@@H](O)[C@H](O)[C@H]2O)[C@H]2CC[C@]3(C)[C@@H]2[C@@H](C[C@@H]2[C@@]4(C)CC[C@H](O)C(C)(C)[C@@H]4CC[C@]23C)O1
active: inhibition [1] | inhibition (Splenocyte [2]) | inhibition (Splenocyte [3]) | Activity (Splenocyte [4]) | Activity [5]

CC(C)=CCC[C@](C)(O)[C@H]1CC[C@]2(C)[C@@H]1[C@H](O)C[C@@H]1[C@@]3(C)CC[C@H](O)C(C)(C)[C@@H]3[C@@H](O[C@@H]3O[C@H](CO)[C@@H](O)[C@H](O)[C@H]3O[C@H]3O[C@@H](C)[C@H](O)[C@@H](O)[C@H]3O)C[C@]12C
active: inhibition (Splenocyte [2]) | inhibition (Splenocyte [3]) | Activity (Splenocyte [4]) | Activity [5]

CC(=O)/C=C/C=C(\C)[C@H]1CC[C@]2(C)[C@@H]1[C@H](O)C[C@@H]1[C@@]3(C)CC[C@H](O)C(C)(C)[C@@H]3[C@@H](O)C[C@]12C
active: inhibition [1] | inhibition (Splenocyte [2]) | inhibition (Splenocyte [3]) | Activity (Splenocyte [4]) | Activity [5]
